# Read-outs that look alike come from different tables or passages of the source.
# Experiments:
# [1] = test system: PA01; experiment: Effect of efflux pump inhibitors (EPIs) on MIC; assay type: cell-based, P. aeruginosa; conditions: for +PABN MIC: PABN at 25 μg/ml; for MIC: Pseudomonas aeruginosa
# Protocol: (§1) 1. Grow up cultures of bacterial strains to be tested overnight.
# (§2) 2. Dilute down overnight cultures to concentration of 1×10^6 bacteria/ml (OD0.01) in Tryptic soy broth (TSB).
# (§3) 3. Add 100 μl of TSB media to column 2-column 12 in 96 well plate (keeping column 1 clear).
# (§4) 4. Make up compound to a concentration of 64 μg/ml in water.
# (§5) 5. Add 100 μl of antibiotic solution to the 1st and 2nd columns.
# (§6) 6. Using a multichannel pipette take 100 μl from the 2nd column wells and pipette into 3rd column wells and repeat down the 96 well plate (remember to include controls i.e. uninfected media and media with no antibiotic).
# (§7) 7. To each well (except uninfected control row H) add 50 μl/well of EPI at 4× final concentration in TSB.
# (§8) 9. In wells used to test the effect of the EPI carbonyl cyanide 3-chlorophenylhydrazone (CCCP) the CCCP is added at 10 μg/ml final concentration.
# (§9) 10. In wells used to test the effect of the EPI phenylalanine-arginine β-naphthylamide (PABN) the PABN is added at 25 μg/ml final concentration.
# (§10) 11. In wells used to test the effect of the PABN+Mg, the PABN is added at 25 μg/ml final concentration, with 1 mM MgSO4 in TSB.
# (§11) 12. Wrap plate with parafilm to prevent evaporation.
# (§12) 13. Leave at desired temperature (37° C. unless specified elsewhere) for 20 hours.
# (§13) 14. Next day check plates for growth and measure optical density (i.e. absorbance) at a wavelength of 600 nm (OD600).
# (§14) Compound KMR-14-33 was tested against a range of bacterial species using the above protocol. Compound PP-A148 was also tested against a more limited range of bacterial species using the above protocol. For KMR-14-33 measurements were carried out for the compound alone, for the compound plus CCCP, for the compound plus PABN and for the compound plus PABN and plus Mg. For PP-A148 measurements were carried out for the compound alone and for the compound plus PABN.
# [2] = test system: NCTC 13437; experiment: Effect of efflux pump inhibitors (EPIs) on MIC; assay type: cell-based, P. aeruginosa; conditions: for +PABN MIC: PABN at 25 μg/ml; for MIC: Pseudomonas aeruginosa
# Protocol: as §1, §2, §3, §4, §5, §6, §7, §8, §9, §10, §11, §12, §13, §14
# [3] = test system: K. pneumonia KP16; experiment: General MIC protocol, Gram negative; assay type: cell-based; conditions: Klebsiella pneumoniae, KP16
# Method in brief: (§15)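 Broth microdilution in tryptic soy broth: twofold serial compound dilutions from a top final dose of 32 μg/ml, inoculum 5×10^5 bacteria/ml from overnight cultures. Plates sealed and incubated 20 hours at 37° C. MIC judged from growth and OD600.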
# [4] = test system: K. pneumonia NCTC 13438; experiment: General MIC protocol, Gram negative; assay type: cell-based; conditions: Klebsiella pneumoniae, NCTC13438
# Method in brief: as §15
# [5] = test system: K. pneumonia - M6; experiment: Time kill kinetics; assay type: cell-based; conditions: drug at 4×MIC
# Protocol: 1. Grow bacteria overnight.
# 2. Subculture into an autoclaved conical flask containing 10 ml of TSB to an OD of 0.01 (˜1×10^7 Cfu/ml for KP-M6).
# 4. Take aliquots (100 μl) at timepoints (0, 1, 2, 4, 6, 24 hours) and carry out a serial dilution in PBS (to remove drug and to dilute bacteria to countable numbers).
# 5. Use the serial dilution to perform a Miles Misra—i.e. Add 3×10 μl spots of each dilution onto an agar plate. Incubate overnight and count colonies on spots in the morning.
# 6. Control: Subculture bacteria alongside samples but with no antibiotic added. Take aliquots from this at every time point (0, 1, 2, 4, 6, 24 hours) and perform Miles Misra on these too (as detailed in points 4 and 5 above).
# 7. After the first experiment, if the counts seen on Miles-Misra were zero, total viable counts were determined by spreading 200 μl in a streak down the centre of a TSB agar plate, waiting for the liquid to be absorbed and then spreading over the plate and checking for growth inhibition at the sight of the original streak.
# 8. The compound is considered bactericidal if the inoculum was reduced >3 log10 CFU/ml and bacteriostatic if inoculum was reduced by 0-3 log10 CFU/ml.
# Three measurements were taken for each compound at each time point. These measurements were averaged and the standard deviation was also calculated.
# [6] = test system: resistant mutants of KP 13438; experiment: MIC following resistance development; assay type: cell-based, Klebsiella; conditions: Klebsiella, OFKP13438, read-out: MIC of resistant mutants (in brackets)
# Protocol: (§16) General Minimum Inhibitory Concentration (MIC) Protocol
# as §1, §2, §3
# (§17) 4. Make up compound to a concentration of 64 μg/ml in water (or alternatively to twice the chosen maximum concentration to be tested).
# as §5
# (§18) 6. Using a multichannel pipette take 100 μl from the 2nd column wells and pipette into 3rd column wells and repeat down the 96 well plate (remembering to include controls i.e. uninfected media and media with no antibiotic).
# (§19) 7. To each well (except uninfected control row H) add 100 μl of bacterially infected media at a concentration of 1×10^6/ml.
# (§20) 8. This dilutes down the concentration of the antibiotic by half (top dose is therefore 32 μg/ml in column 1) and also gives you a starting bacterial concentration of 5×10^5/ml.
# (§21) 9. Wrap plate with parafilm to prevent evaporation.
# (§22) 10. Leave at desired temperature (37° C. unless specified elsewhere) for 20 hours.
# (§23) 11. Next day check plates for growth and measure optical density (i.e. absorbance) at a wavelength of 600 nm (OD600).
# (§24) An example of such a plate is shown in FIG. 1 where column A represents wells that receive the top dose 100 μl; column B represents wells that receive the top dose 100 μl+100 μl TSB; and column C represents wells that receive 100 μl TSB. Row H which is marked by a box labelled D represents a blank where the cells receive no bacteria.
# (§25) The MIC of PP-A418 and colistin against the strains used in the time kill analysis of Example 31 following resistance development were measured. The MIC was measured using the general MIC protocol given above. The results are given in Table 14 below where the MIC values of resistant mutants are shown in the brackets.
# [7] = test system: resistant mutants of KP 16; experiment: MIC following resistance development; assay type: cell-based, Klebsiella; conditions: Klebsiella, OFKP16, read-out: MIC of resistant mutants (in brackets)
# Protocol: as §16, §1, §2, §3, §17, §5, §18, §19, §20, §21, §22, §23, §24, §25
# [8] = test system: resistant mutants of KP 13368; experiment: MIC following resistance development; assay type: cell-based, Klebsiella; conditions: Klebsiella, OFKP13368, read-out: MIC of resistant mutants (in brackets)
# Protocol: as §16, §1, §2, §3, §17, §5, §18, §19, §20, §21, §22, §23, §24, §25
# [9] = no EPI, read-out: Control with no EPI MIC
# [10] = NCTC13437, read-out: Control with no EPI MIC
structure (smiles),measurement,setting,value
"COc1cc2c(cc1OCCCC(=O)Nc1cc(C(=O)Nc3ccc4sc(C(=O)N(C)C)cc4c3)n(C)c1)N=C[C@@H]1CCCN1C2=O [KMR-14-33, (S)—N-(2-(dimethylcarbamoyl)benzo[b]thiophen-5-yl)-4-(4-((7-methoxy-5-oxo-2,3,5,11a-tetrahydro-1H-benzo[e]pyrrolo[1,2-a][1,4]-diazepin-8-yl)oxy)butanamido)-1-methyl-1H-pyrrole-2-carboxamide]",+PABN MIC,[1],4 µg/mL
same,+PABN + Mg MIC,[1]; PABN at 25 μg/ml with 1 mM MgSO4,2 µg/mL
same,MIC,"[1]; CCCP at 10 μg/ml, read-out: +CCCP MIC",> 32 µg/mL
same,MIC,[1]; [9],> 32 µg/mL
same,+PABN MIC,[2]; NCTC 13437,16 µg/mL
same,+PABN + Mg MIC,"[2]; NCTC 13437, PABN at 25 μg/ml with 1 mM MgSO4",16 µg/mL
same,MIC,"[2]; NCTC13437, read-out: +CCCP MIC",> 32 µg/mL
same,MIC,[2]; [10],> 32 µg/mL
same,MIC,[3],0.25 µg/mL
same,MIC,[4],0.5 µg/mL
same,Average (Log CFU/ml),[5]; time-point 1 hours,2667 CFU/ml
same,n = 1 (Log CFU/ml),[5]; time-point 1 hours,3000 CFU/ml
same,n = 2 (Log CFU/ml),[5]; time-point 1 hours,3000 CFU/ml
same,n = 3 (Log CFU/ml),[5]; time-point 1 hours,2000 CFU/ml
same,Average (Log CFU/ml),[5]; time-point 2 hours,0 CFU/ml
same,n = 2 (Log CFU/ml),[5]; time-point 2 hours,0 CFU/ml
same,n = 3 (Log CFU/ml),[5]; time-point 2 hours,0 CFU/ml
same,viable count,[5]; time-point 2 hours,0 CFU/mL
same,Average (Log CFU/ml),[5]; time-point 4 hours,0 CFU/ml
same,n = 2 (Log CFU/ml),[5]; time-point 4 hours,0 CFU/ml
same,n = 3 (Log CFU/ml),[5]; time-point 4 hours,0 CFU/ml
same,viable count,[5]; time-point 4 hours,0 CFU/mL
same,Average (Log CFU/ml),[5]; time-point 6 hours,0 CFU/ml
same,n = 2 (Log CFU/ml),[5]; time-point 6 hours,0 CFU/ml
same,n = 3 (Log CFU/ml),[5]; time-point 6 hours,0 CFU/ml
same,viable count,[5]; time-point 6 hours,0 CFU/mL
same,Average (Log CFU/ml),[5]; time-point 24 hours,0 CFU/ml
same,n = 2 (Log CFU/ml),[5]; time-point 24 hours,0 CFU/ml
same,n = 3 (Log CFU/ml),[5]; time-point 24 hours,0 CFU/ml
same,viable count,[5]; time-point 24 hours,0 CFU/mL
"COc1cc2c(cc1OCCCC(=O)Nc1cc(C(=O)Nc3ccc4oc(C(=O)N5CCSCC5)cc4c3)n(C)c1)N=C[C@@H]1CCCN1C2=O [PP-A148, (S)-4-(4-((7-methoxy-5-oxo-2,3,5,11a-tetrahydro-1H-benzo-[e]pyrrolo[1,2-a][1,4]diazepin-8-yl)oxy)butanamido)-1-methyl-N-(2-(thiomorpholine-4-carbonyl)benzofuran-5-yl)-1H-pyrrole-2-carboxamide]",MIC,[6],64 µg/mL
same,MIC,[7],4 to 8 µg/mL
same,MIC,[8],> 128 µg/mL
same,+PABN MIC,[1],4 to 8 µg/mL
same,MIC,[1]; [9],128 µg/mL
same,+PABN MIC,[2]; NCTC 13437,0.25 to 2 µg/mL
same,MIC,[2]; [10],16 µg/mL
same,MIC,[3],0.25 to 0.5 µg/mL
same,MIC,[4],4 to 8 µg/mL

# Source: US10640507B2, “PBD antibacterial agents” (KING'S COLLEGE LONDON, priority 2015, dated 2020)
